We go through 4 molecules from patent US20050120403A1, “Inhibition of generative propagation in genetically modified herbicide resistant grasses” (Advanta Seeds B. V., priority 2000, published 2005).

The test system of test [1] is Lolium perenne L. (perennial ryegrass) AtH1-expressing transformants. Put plainly: Relief of delayed heading by gibberellins (spraying, Long Day conditions). The test is classed as in vivo. As to conditions: for Mean Heading Time: transformant (T) plants, 30 mg/L in 5% ethanol + 0.01% Tween-20, sprayed six times over two weeks, days after the first spraying; for effect on heading as compared to non-treated controls: transformant plants, gibberellin 30 mg/L spray. The text has this: Primary transformants derived from Lolium perenne L. (perennial ryegrass) using pVDH636 were vernalized and then subjected to Long Day (LD) conditions in the greenhouse (17 hr light/7 hr dark). […] AtH1-expressing plants are generally very leafy (FIG. 10).
Four different gibberellin compounds, which differ in their florigenicity (Evans et al., 1990), were used to treat 34 clones per compound and their effect on heading time of transformants and controls was observed. Gibberellin was applied in solvent (5% ethanol supplemented with 0.01% Tween-20 surfactant) at 30 mg/L. It was applied by spraying six times with about 2-3 ml per plant over two weeks, started one week after the beginning of LD conditions. Mean heading time is shown in days after the first spraying. Non-transformant controls were treated with the solvent only.
Transformant (T) and non-transformant (NT) control plants (Table 5) were treated with the indicated gibberellin. […] Variation between transformants for their sensitivity to gibberellins could be great.

For test [2], the system named is Arabidopsis and tobacco overexpressing AtH1. Conditions: exogenous application; AtH1 overexpression in dicots; cited from earlier work.

Marks after values point to notes of the source that are not given here.

`C=C1C[C@]23C[C@@]1(O)CC[C@H]2[C@@]12CC=C[C@@](C)(C(=O)O1)[C@H]2[C@@H]3C(=O)O` [GA5]: in test [1], the “Mean Heading Time” value was 33.5 ^a days and the “effect on heading as compared to non-treated controls” value is “significantly stimulated heading”. As to `C=C1C[C@]23C[C@@]1(O)CC[C@H]2[C@@]12CCC[C@@](C)(C(=O)O1)[C@H]2[C@@H]3C(=O)O` [GA20], in test [1], the “Mean Heading Time” value is listed as 37.8 ^b days and the “effect on heading as compared to non-treated controls” value was “somewhat delayed heading”. `C=C1C[C@]23C[C@@]1(O)CC[C@H]2[C@@]12C=C[C@H](O)[C@@](C)(C(=O)O1)[C@H]2[C@@H]3C(=O)O` [GA3, gibberellic acid]: the “Mean Heading Time” value in test [1] was 34.1 ^ab days. In test [2], the “reversal of inhibited flowering phenotype” value is “can be reversed”. Take 16,17-dihydro-GA5 [diHGA5]: in test [1], the “Mean Heading Time” value is 34.2 ^ab days.
